Test systems include OVCAR-5 ovarian; MALME-3M melanoma; CCRF-CEM leukemia; SK-OV-3 ovarian; SNB-78 CNS; COLO 205 colon; CAKI-1 renal; M19-MEL melanoma; 786-0 renal.
What all share (test): NCI anticancer screen, dose series, 48 h

Where “and” joins values, the source holds several entries; their conditions need not be identical. Equal entries are not always repeated.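 Cells were grown in 96-well plates and exposed to each compound for 48 hours at five concentrations; endpoints were interpolated linearly between bracketing concentrations, or set to the highest concentration if not reached. GI50: concentration for 50% inhibition of growth. TGI is the concentration that stops growth completely.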

As for `COc1ccc(-c2cc(C(=O)Nc3ccc(C)c(C)c3)nc(NC#N)n2)cc1`, the TGI with OVCAR-5 ovarian, with MALME-3M melanoma, in the experiment on CCRF-CEM leukemia, in the experiment on SK-OV-3 ovarian, in the experiment with SNB-78 CNS and in the experiment on COLO 205 colon was over 100 µM throughout. The TGI in the experiment with CAKI-1 renal, with M19-MEL melanoma and in the experiment on 786-0 renal was over 100 µM throughout.

In the case of `NC(=O)c1csc(C2OC(COP(=O)(O)CP(=O)(O)OCC3OC(n4cnc5c(N)ncnc54)C(O)C3O)C(O)C2O)n1` (centres undefined), the TGI with OVCAR-5 ovarian, with MALME-3M melanoma, in the experiment on CCRF-CEM leukemia, in the experiment on SK-OV-3 ovarian, in the experiment on SNB-78 CNS and in the experiment with COLO 205 colon was over 100 µM in each case. Besides, the TGI with CAKI-1 renal, in the experiment with M19-MEL melanoma and in the experiment with 786-0 renal was over 100 µM throughout.

In the case of `N#CC(C#N)c1ccc(C(=O)N2CCC[C@H]2CO)cc1`, the TGI in the experiment with OVCAR-5 ovarian, in the experiment with MALME-3M melanoma, in the experiment with CCRF-CEM leukemia, in the experiment with SK-OV-3 ovarian, with COLO 205 colon and in the experiment with CAKI-1 renal was over 100 µM each time. Moreover, the TGI in the experiment with M19-MEL melanoma and with 786-0 renal was over 100 µM in each case.

Take `C=C1CCC2[C@@H](CCC3[C@]2(C)CCC[C@]3(C)C(=O)OC)C1CC=O` (some centres undefined): the GI50 in the experiment with OVCAR-5 ovarian was 16.7 µM; in the experiment on SK-OV-3 ovarian, 21.4 µM; in the experiment on CAKI-1 renal it was 16.4 µM. In addition, the TGI in the experiment on OVCAR-5 ovarian was 31.8 µM; with MALME-3M melanoma, 37.5 µM; in the experiment with CCRF-CEM leukemia it was 35.2 µM; in the experiment with SK-OV-3 ovarian, 37.7 µM; in the experiment on SNB-78 CNS it was 34.1 µM; in the experiment on COLO 205 colon it was 35.5 µM. The TGI in the experiment on CAKI-1 renal was 30.1 µM; with M19-MEL melanoma, 33.8 µM; in the experiment on 786-0 renal it was 33.1 µM.

Consider `O=C(CC1SC(=Nc2ccccc2Cl)NC1=O)Nc1ccc(Cl)cc1Cl` (centres undefined), for which the TGI in the experiment on OVCAR-5 ovarian, in the experiment with MALME-3M melanoma, with CCRF-CEM leukemia, with SNB-78 CNS, with COLO 205 colon and in the experiment with M19-MEL melanoma was over 100 µM each time. Also, in the experiment on 786-0 renal, the TGI was over 100 µM.

`CCOC(=O)/C(C#N)=C(O)/C(=C\c1ccc(Br)cc1)NC(=O)c1ccccc1`: the TGI in the experiment with OVCAR-5 ovarian, in the experiment on MALME-3M melanoma, in the experiment on CCRF-CEM leukemia, in the experiment on SK-OV-3 ovarian, in the experiment on SNB-78 CNS and in the experiment on COLO 205 colon was over 100 µM each time. Moreover, the TGI in the experiment with CAKI-1 renal, in the experiment with M19-MEL melanoma and in the experiment on 786-0 renal was over 100 µM throughout.

With `O=C1Nc2ccccc2N=CC1NC(=O)C(c1ccccc1)c1ccccc1` (centres undefined), the TGI in the experiment on OVCAR-5 ovarian, in the experiment with MALME-3M melanoma, in the experiment with CCRF-CEM leukemia, in the experiment on SK-OV-3 ovarian, in the experiment on SNB-78 CNS and with COLO 205 colon was over 100 µM throughout. The TGI in the experiment on CAKI-1 renal, in the experiment with M19-MEL melanoma and in the experiment on 786-0 renal was over 100 µM each time.

As to `CCCCCCCCCCCCC(Br)C(=O)NCC(N)=O` (centres undefined), the TGI in the experiment with OVCAR-5 ovarian is 57.3 µM; in the experiment on MALME-3M melanoma, 28 µM; in the experiment on CCRF-CEM leukemia it was 66.3 µM; in the experiment with SK-OV-3 ovarian, 59.2 µM; with SNB-78 CNS, 32.2 µM; in the experiment with COLO 205 colon, 39.2 µM. Besides, the values for the TGI in the experiment with M19-MEL melanoma and in the experiment with 786-0 renal were 32.5 µM and 20.9 µM, respectively.

`C[N+](C)(C)CC1CCCC1=O` (centres undefined): the TGI in the experiment on OVCAR-5 ovarian was found to be 14.8 µM; with MALME-3M melanoma, 1.61 µM; in the experiment with SK-OV-3 ovarian, 30.4 µM; in the experiment with SNB-78 CNS, 9.86 µM; in the experiment on COLO 205 colon, 2.99 µM; with CAKI-1 renal, 6.61 µM. Moreover, the TGI came out at 5.52 µM with M19-MEL melanoma and 5.32 µM with 786-0 renal.

With `Cc1cc(C)nc(NS(=O)(=O)c2ccc(Nc3c4ccccc4nc4c(C(=O)Nc5ccc(S(=O)(=O)N=C(N)N)cc5)cccc34)cc2)n1`, the TGI in the experiment on OVCAR-5 ovarian, in the experiment on MALME-3M melanoma, in the experiment on CCRF-CEM leukemia, in the experiment with SK-OV-3 ovarian, in the experiment on SNB-78 CNS and with COLO 205 colon was over 100 µM in each case. The TGI in the experiment on CAKI-1 renal, in the experiment with M19-MEL melanoma and in the experiment with 786-0 renal was over 100 µM in each case.

Take `CC(C)(Br)C(=O)C(Br)Br`: the GI50 in the experiment on OVCAR-5 ovarian is 5.26 µM; in the experiment on MALME-3M melanoma it was 4.92 µM; in the experiment on CCRF-CEM leukemia, 2.72 µM; in the experiment with SK-OV-3 ovarian, 32.8 µM; in the experiment with COLO 205 colon, 4.06 µM; in the experiment on CAKI-1 renal, 5.21 µM. The GI50 in the experiment with 786-0 renal was 4.85 µM. Moreover, the TGI with OVCAR-5 ovarian was 30.6 µM and 9.58 µM; in the experiment on MALME-3M melanoma, 3.67 µM and 9.42 µM; in the experiment with SK-OV-3 ovarian, 31.3 µM and 69.8 µM; with SNB-78 CNS, 13.9 µM; in the experiment with COLO 205 colon, 7.04 µM and 8.3 µM; in the experiment with CAKI-1 renal, 3.81 µM and 9.43 µM. The TGI was 16.1 µM in the experiment with M19-MEL melanoma; 26.9 µM and 8.99 µM in the experiment on 786-0 renal.

Take `O=C(O)/C=C/c1nc2ccccc2c(=O)o1`: the TGI in the experiment with CCRF-CEM leukemia, in the experiment on SK-OV-3 ovarian, in the experiment with SNB-78 CNS, in the experiment with COLO 205 colon, in the experiment with M19-MEL melanoma and in the experiment with 786-0 renal was over 100 µM each time.

Values taken from PubChem BioAssay (NCI).
